Where a name gives a salt, the structure may show the parent alone. Read-outs that look alike come from different tables or passages of the source.
How the values were obtained:
[1] = system: LPS-induced microglia activation; assay: Image-based assay of LPS-induced microglia activation (HTS and dose response); type: cell-based, rat; conditions: for inhibition at 10 µM: Rattus norvegicus, Microglia, read-out: LPS % inhibition
[2] = system: fibrin- and LPS-induced microglia activation; assay: cells; type: cell-based, rat
primary rat microglia [3] = system: primary rat microglia
[4] = system: fibrin-induced microglia activation; assay: Image-based assay of fibrin-induced microglia activation (HTS and dose response); type: cell-based, rat; conditions: primary microglia HTS, fibrin stimulation; for inhibition at 10 µM: Rattus norvegicus, Microglia, read-out: Fibrin % inhibition
primary rat microglia [5] = assay: Cell toxicity (dead cells, size <150 μm2) in coated fibrin (cFib) assay; conditions: primary microglia HTS;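 further: share of dead cells sized under 150 µm2 at 10 µM in fibrin-stimulated microglia HTS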
[6] = primary microglia HTS, LPS stimulation, compounds at 10 μM
[7] = classification by fibrin and LPS inhibition, HTS at 10 μM
[8] = fibrin assay, dead cells (size <150 μm2), compounds at 10 μM
[9] = quadrant by fibrin and LPS inhibition, HTS at 10 μM
[10] = fibrin assay, dead cells (size <150 μm2)
[11] = primary microglia HTS, LPS stimulation, compounds at 10 μM, 10 µM
[12] = classification by fibrin and LPS inhibition in HTS
[13] = cell size >800 μm2 as marker of activation
[14] = fibrin stimulation, cell size <150 μm2 as marker of toxicity

SMILES	inhibition at 10 µM [1, 6]	Quadrant (FIG. 5b) [2, 7]	LPS % cell toxicity (primary rat microglia [3]; rat)	inhibition at 10 µM ([4]; compounds at 10 μM)	Fibrin % cell toxicity (primary rat microglia [5]; [8])	Quadrant (FIG. 5b) [2, 9]	Fibrin % cell toxicity (primary rat microglia [5]; [10])	also measured
CN1CCN(C(=O)O[C@H]2c3nccnc3C(=O)N2c2ccc(Cl)cn2)CC1 [Eszopiclone]	17%	Q4	0%	1%	0%	–	–	–
CC(=O)Nc1cccc(O)c1 [3-acetamidophenol]	5%	–	0%	4%	–	Q4	1%	–
CN1C[C@H](C(=O)N[C@]2(C)O[C@@]3(O)[C@@H]4CCCN4C(=O)[C@H](Cc4ccccc4)N3C2=O)C=C2c3cccc4[nH]cc(c34)C[C@H]21 [Ergotamine Tartrate]	–	Q4	1%	–	0%	–	–	LPS % inhibition [1, 11]: 22%; Fibrin % inhibition ([4]; compounds at 10 μM, 10 µM): 31%
CCCCc1ncc(/C=C(\Cc2cccs2)C(=O)O)n1Cc1ccc(C(=O)O)cc1 [Eprosartan]	-8%	Q4	0%	-29%	1%	–	–	–
CCc1ccc(CCOc2ccc(CC3SC(=O)NC3=O)cc2)nc1 (stereo not drawn) [Pioglitazone]	–	–	1%	–	–	–	–	inhibition at 10 µM ([1]; 48 h): 33%; Quadrant (FIG. 5b) [2, 12]: Q4; inhibition at 10 µM [4, 13]: 2%; Fibrin % cell toxicity (primary rat microglia [5]; [14]): 1%
CCOC(=O)[C@H](CCc1ccccc1)N[C@H]1CCc2ccccc2N(CC(=O)O)C1=O [Benazepril]	26%	–	1%	0%	–	Q4	1%	–
CNC(=O)Oc1ccccc1OC(C)C [Propoxur]	–	–	0%	–	–	–	–	inhibition at 10 µM ([1]; 48 h, primary microglia HTS, LPS stimulation, cell size >800 μm2 as marker of activation): 8%; Quadrant (FIG. 5b) [2, 12]: Q4; inhibition at 10 µM [4, 13]: -51%; Fibrin % cell toxicity (primary rat microglia [5]; [14]): 1%
CCC(=O)OCC(=O)[C@@]1(OC(=O)CC)[C@@H](C)C[C@H]2[C@@H]3CCC4=CC(=O)C=C[C@]4(C)[C@@]3(Cl)[C@@H](O)C[C@@]21C [Beclomethasone Dipropionate]	28%	–	1%	7%	–	Q4	1%	–
O=C(CNC(=O)c1ccc(Cl)cc1)NO [Benurestat]	–	–	–	–	–	Q4	1%	LPS % inhibition [1, 6]: 22%; LPS % cell toxicity (primary rat microglia [3]): 1%; Fibrin % inhibition ([4]; compounds at 10 μM): 6%
C[C@H]1C[C@H]2[C@@H]3CCC4=CC(=O)C=C[C@]4(C)[C@@]3(Cl)[C@@H](O)C[C@]2(C)[C@@]1(O)C(=O)CO [Beclomethasone]	–	–	–	–	–	Q4	1%	LPS % inhibition [1, 6]: −3%; LPS % cell toxicity (primary rat microglia [3]): 0%; Fibrin % inhibition ([4]; compounds at 10 μM): −8%
C[C@]12CCC(=O)C=C1[C@@H]1C[C@@H]1[C@H]1[C@@H]3[C@@H]4C[C@@H]4[C@@]4(CCC(=O)O4)[C@@]3(C)CC[C@@H]12 [Drospirenone]	6%	Q4	1%	11%	1%	–	–	–
CCOC(=O)[C@H](CCc1ccccc1)N[C@@H](C)C(=O)N1Cc2ccccc2C[C@H]1C(=O)O [Quinapril]	–	–	0%	–	–	–	–	inhibition at 10 µM ([1]; 48 h): 13%; Quadrant (FIG. 5b) [2, 12]: Q4; inhibition at 10 µM [4, 13]: -24%; Fibrin % cell toxicity (primary rat microglia [5]; [14]): 1%
O=c1c2ccccc2[se]n1-c1ccccc1 [Ebselen]	-1%	Q4	0%	-49%	0%	–	–	–
CCN(CC)C(C)CN1c2ccccc2Sc2ccccc21 (stereo not drawn) [Ethopropazine]	30%	Q4	0%	31%	1%	–	–	–
Cc1c(OCC(F)(F)F)ccnc1C[S@@+]([O-])c1nc2ccccc2[nH]1 [Dexlansoprazole]	-12%	Q4	0%	-23%	0%	–	–	–
C[C@@H](CO)NC(=O)[C@@H]1C=C2c3cccc4[nH]cc(c34)C[C@H]2N(C)C1 [Ergonovine]	–	Q4	0%	–	1%	–	–	LPS % inhibition [1, 11]: −10%; Fibrin % inhibition ([4]; compounds at 10 μM, 10 µM): −23%
CCC1(c2ccc(N)cc2)CCC(=O)NC1=O (racemic)	–	–	–	–	–	Q4	0%	LPS % inhibition [1, 6]: 6%; LPS % cell toxicity (primary rat microglia [3]): 0%; Fibrin % inhibition ([4]; compounds at 10 μM): 3%
O=C(O)CCc1nc2ccccc2[nH]1 [Procodazole]	–	–	0%	–	–	–	–	inhibition at 10 µM ([1]; 48 h): 15%; Quadrant (FIG. 5b) [2, 12]: Q4; inhibition at 10 µM [4, 13]: -15%; Fibrin % cell toxicity (primary rat microglia [5]; [14]): 1%

From patent US20210330611A1, “THERAPY FOR NEUROLOGICAL DISEASES/DISORDERS” (priority 2020, published 2021)
